Literature values, collected in patent publication US20070104788A1, “Once-daily administration of central nervous system drugs” (priority 2005, published 2007).
Where two headings read alike, the source gives them in different places.

Settings: for half life: background statement

SMILES	half life [h]	Half-Life Elimination (after a meal)	Half-Life Elimination (fasting)	Half-Life Elimination (parent drug) [h]	Half-Life Elimination (metabolite of tramadol) [h]
CN(C)C[C@H]1CCCC[C@]1(O)c1cccc(O)c1 [Ml]	7.4				
Cc1cc(C)cc(OCC2CNC(=O)O2)c1 (stereo not shown) [metaxolone]		2.4 ± 1.2 (after a meal) hours	9.2 ± 4.8 (fasting) hours		
COc1ccc2c3c1O[C@H]1C(=O)CC[C@@]4(O)[C@@H](C2)N(C)CC[C@]314 [oxycodone]				0.4	
COc1cccc([C@@]2(O)CCCC[C@H]2CN(C)C)c1 (racemic) [tramadol]	6.3			5 to 6	7
